Reference: PubChem BioAssay AID330 (DTP/NCI, 2004)
Values joined by “and” are separate entries in the source; they are usually repeats but may differ in a detail not shown here. Identical values can stand only once. Inconclusive results and toxic doses are left out. How the source made its calls: active means survival T/C of 150% or more; inactive means T/C below 125% in these data.

Tested on: P388 leukemia ip, CD2F1 mice, survival T/C
Assay: NCI In Vivo Anticancer Drug Screen. Data for tumor model P388 Leukemia (intraperitoneal) in CD2F1 (CDF1) mice
Settings: endpoint: median survival time, higher = longer survival
Method in brief: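 Mice carrying the transplanted tumor received test compound or vehicle. Survival was recorded in each group, and the value is the treated-group measurement divided by that of the vehicle-treated control group.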

[1] = dose: 100.0 mg/kg/injection, schedule: Q04DX002 (ip), vehicle: saline with Tween-80
[2] = dose: 200.0 mg/kg/injection, schedule: Q04DX002 (ip), vehicle: saline with Tween-80
[3] = dose: 50.0 mg/kg/injection, schedule: Q01DX005 (ip), vehicle: Klucel (hydroxypropylcellulose) (HPC)
[4] = dose: 100.0 mg/kg/injection, schedule: Q01DX005 (ip), vehicle: Klucel (hydroxypropylcellulose) (HPC)
[5] = dose: 200.0 mg/kg/injection, schedule: Q01DX005 (ip), vehicle: Klucel (hydroxypropylcellulose) (HPC)
[6] = dose: 60.0 mg/kg/injection, schedule: Q01DX005 (ip), vehicle: saline with Tween-80
[7] = dose: 120.0 mg/kg/injection, schedule: Q01DX005 (ip), vehicle: saline with Tween-80
[8] = dose: 240.0 mg/kg/injection, schedule: Q01DX005 (ip), vehicle: saline with Tween-80
[9] = dose: 50.0 mg/kg/injection, schedule: Q01DX009 (ip), vehicle: Klucel (hydroxypropylcellulose) (HPC)
[10] = dose: 100.0 mg/kg/injection, schedule: Q01DX009 (ip), vehicle: Klucel (hydroxypropylcellulose) (HPC)
[11] = dose: 50.0 mg/kg/injection, schedule: Q01DX009 (ip), vehicle: saline with Tween-80
[12] = dose: 200.0 mg/kg/injection, schedule: Q01DX009 (ip), vehicle: saline with Tween-80
[13] = dose: 200.0 mg/kg/injection, schedule: Q01DX009 (ip), vehicle: Klucel (hydroxypropylcellulose) (HPC)

Measured: T/C

CCCCCCCCCCCCCCCCOc1ccc2c(c1OCCCCCCCCCCCCCCCC)OC(C)(C)C=C2C
inactive: [1] 88 % of control | [2] 86 % of control

COc1ccc2c(C)cc(N/N=C\c3cccc4ccccc34)nc2c1
inactive: [3] 98 % of control | [4] 93 % of control | [5] 106 % of control

COc1cc2oc(=O)ccc2cc1[C@@H]1OC(=O)C2(C)O[C@@H]12 (some centres undefined)
inactive: dose: 2.5 mg/kg/injection, schedule: Q01DX009 (ip), vehicle: saline 112 % of control | dose: 5.0 mg/kg/injection, schedule: Q01DX009 (ip), vehicle: saline 93 % of control | dose: 6.0 mg/kg/injection, schedule: Q01DX009 (ip), vehicle: Klucel (hydroxypropylcellulose) (HPC) 107 % of control | dose: 6.0 mg/kg/injection, schedule: Q01DX009 (ip), vehicle: saline with Tween-80 110 % of control | dose: 8.0 mg/kg/injection, schedule: Q01DX009 (ip), vehicle: Klucel (hydroxypropylcellulose) (HPC) 114 % of control | dose: 8.0 mg/kg/injection, schedule: Q01DX009 (ip), vehicle: saline with Tween-80 117 % of control | dose: 10.0 mg/kg/injection, schedule: Q01DX009 (ip), vehicle: Klucel (hydroxypropylcellulose) (HPC) 105 % of control | dose: 10.0 mg/kg/injection, schedule: Q01DX009 (ip), vehicle: saline with Tween-80 110 % of control | dose: 12.0 mg/kg/injection, schedule: Q01DX009 (ip), vehicle: Klucel (hydroxypropylcellulose) (HPC) 103 % of control | dose: 12.0 mg/kg/injection, schedule: Q01DX009 (ip), vehicle: saline with Tween-80 110 % of control

CCCCCCCC/C=C\C(O)=C1\C(=O)NC(CCCNC(=O)OCc2ccccc2)C1=O (centres undefined)
inactive: dose: 25.0 mg/kg/injection, schedule: Q04DX002 (ip), vehicle: saline with Tween-80 100 % of control | dose: 50.0 mg/kg/injection, schedule: Q04DX002 (ip), vehicle: saline with Tween-80 100 % of control | [1] 86 % of control | [2] 91 % of control | dose: 400.0 mg/kg/injection, schedule: Q04DX002 (ip), vehicle: saline with Tween-80 103 % of control

CN(C)CCN1c2ccccc2Oc2ccccc21
inactive: dose: 50.0 mg/kg/injection, schedule: Q01DX005 (ip), vehicle: saline 104 % of control | dose: 100.0 mg/kg/injection, schedule: Q01DX005 (ip), vehicle: saline 95 % of control

O=[N+]([O-])c1ccccc1S(=O)(=O)N(CCCCN(S(=O)(=O)c1ccccc1[N+](=O)[O-])S(=O)(=O)c1ccccc1[N+](=O)[O-])S(=O)(=O)c1ccccc1[N+](=O)[O-]
inactive: [6] 93 % of control | [7] 91 % of control | [8] 87 % of control

COc1cc2ccc(CCNCc3ccccc3)cc2cc1OC
inactive: dose: 12.5 mg/kg/injection, schedule: Q01DX009 (ip), vehicle: Klucel (hydroxypropylcellulose) (HPC) 95 % of control | dose: 25.0 mg/kg/injection, schedule: Q01DX009 (ip), vehicle: Klucel (hydroxypropylcellulose) (HPC) 94 % of control | [9] 95 % of control | [10] 90 % of control

COc1ccc2c(C(=O)c3ccccc3)c3[n+](cc2c1OC)CCc1cc2c(cc1-3)OCO2
inactive: dose: 6.25 mg/kg/injection, schedule: Q01DX005 (ip), vehicle: Klucel (hydroxypropylcellulose) (HPC) 103 % of control | dose: 12.5 mg/kg/injection, schedule: Q01DX005 (ip), vehicle: Klucel (hydroxypropylcellulose) (HPC) 103 % of control

CCC(C)SSc1ccccc1C(=O)Nc1ccc(Cl)cc1 (centres undefined)
inactive: [6] 95 % of control | [7] 97 % of control | [8] 99 % of control

Cc1[nH][nH]c(=O)c1C=Nc1ccccc1
inactive: [3] 103 % of control | [4] 100 % of control | [5] 95 % of control

c1cc2c3c(c1)CCC3CCC2 (centres undefined)
inactive: [11] 112 % of control | dose: 100.0 mg/kg/injection, schedule: Q01DX009 (ip), vehicle: saline with Tween-80 109 % of control and 117 % of control | [12] 118 % of control

CCC(=O)C12CCCC1=NC(=N)N=C2C1=NC(=N)N=C2CCCC21C(=O)CC (centres undefined)
inactive: dose: 60.0 mg/kg/injection, schedule: Q01DX005 (ip), vehicle: saline 102 % of control | dose: 120.0 mg/kg/injection, schedule: Q01DX005 (ip), vehicle: saline 108 % of control | dose: 240.0 mg/kg/injection, schedule: Q01DX005 (ip), vehicle: saline 88 % of control

CSC(=N\N=C(/C)c1ccc(Br)cc1)/N=C/N(C)C
inactive: [6] 100 % of control | [7] 102 % of control | [8] 102 % of control

O=C1NN2CCN=C2c2cnccc21
inactive: dose: 100.0 mg/kg/injection, schedule: Q04DX002 (ip), vehicle: saline 98 % of control | dose: 200.0 mg/kg/injection, schedule: Q04DX002 (ip), vehicle: saline 93 % of control | dose: 400.0 mg/kg/injection, schedule: Q04DX002 (ip), vehicle: saline 92 % of control

CCN(CC)C(=O)c1ccc[n+](CCC(N)=O)c1
inactive: dose: 100.0 mg/kg/injection, schedule: Q04DX003 (ip), vehicle: saline 90 % of control | dose: 200.0 mg/kg/injection, schedule: Q04DX003 (ip), vehicle: saline 100 % of control | dose: 400.0 mg/kg/injection, schedule: Q04DX003 (ip), vehicle: saline 100 % of control

COC(=O)NC1=Nc2ccccc2N(C(=O)C(C)C)S1
inactive: [3] 100 % of control | [4] 101 % of control | [5] 97 % of control

CCOC(=O)C(C(=O)OCC)=C(N)C(Cl)(Cl)Cl
inactive: dose: 25.0 mg/kg/injection, schedule: Q01DX005 (ip), vehicle: Klucel (hydroxypropylcellulose) (HPC) 116 % of control | [3] 117 % of control | [4] 111 % of control | [5] 110 % of control

Cn1c(N)c(C(=O)c2cccs2)c(=O)n(C)c1=O
inactive: [9] 96 % of control | [10] 88 % of control | [13] 96 % of control

Cc1ccc(S(=O)(=O)N2CC3CC(C2)C(=O)NC3=O)cc1
inactive: [9] 104 % of control | [10] 107 % of control | [13] 92 % of control

CN(C)c1ccc([N+]([O-])=Nc2ccc3ccccc3c2)cc1
inactive: dose: 30.0 mg/kg/injection, schedule: Q01DX005 (ip), vehicle: saline with Tween-80 96 % of control | [6] 87 % of control and 96 % of control | [7] 89 % of control | [8] 90 % of control

CC(Nc1ccc(Br)cc1[N+](=O)[O-])C(=O)O (centres undefined)
inactive: [11] 110 % of control | [12] 100 % of control

CC[C@@H](C)C(=O)O[C@H]1[C@H](O)[C@H]2[C@@H](CN3C[C@@H](C)CC[C@H]3[C@@]2(C)O)[C@@H]2CC34O[C@]5(O)[C@@H](OC(=O)[C@@](C)(O)CC)CC[C@@]3(C)[C@@H]5[C@@H](OC(C)=O)[C@@H](OC(C)=O)[C@H]4[C@@]21O
inactive: dose: 0.1 mg/kg/injection, schedule: Q01DX005 (ip), vehicle: saline 102 % of control | dose: 0.4 mg/kg/injection, schedule: Q01DX005 (ip), vehicle: saline with Tween-80 100 % of control | dose: 25.0 micrograms/kg/injection, schedule: Q01DX005 (ip), vehicle: saline 97 % of control | dose: 50.0 micrograms/kg/injection, schedule: Q01DX005 (ip), vehicle: saline 94 % of control | dose: 100.0 micrograms/kg/injection, schedule: Q01DX005 (ip), vehicle: saline 94 % of control

Cn1c(-c2ccccc2Cl)cc(C=O)c1-c1ccccc1
inactive: dose: 100.0 mg/kg/injection, schedule: Q01DX001 (ip), vehicle: saline with Tween-80 99 % of control | dose: 200.0 mg/kg/injection, schedule: Q01DX001 (ip), vehicle: saline with Tween-80 93 % of control | dose: 400.0 mg/kg/injection, schedule: Q01DX001 (ip), vehicle: saline with Tween-80 93 % of control
